US9828339B2, “Biphenyl derivatives and methods for preparing same” (DONG-A ST CO., LTD, priority 2013, dated 2017)

Each molecule was assayed against human muscarinic M3 receptor (Homo sapiens (Human), UniProt P20309) (assay: Binding assay on human muscarinic M3 receptor ([3H]-methyl scopolamine displacement)). Settings: membranes overexpressing human M3 receptor, Ki from IC50 by Cheng-Prusoff, read-out: Binding Affinity to M3 Receptor, Ki.
Protocol: [Experimental Example 1] Binding Assay on Human Muscarinic M3 Receptor
Cell membrane proteins (Perkin Elmer) wherein human muscarinic M3 receptor was overexpressed, [^3H]-methyl scopolamine and test compounds in various concentration were cultured in 0.2 ml of Tris-HCl buffer at 25° C. for 120 minutes. The same was filtered under suction through glass fiber filter (Whatman GF/B), and then the filter was washed 5 times with 1 ml of Tris-HCl buffer. The radioactivity of [^3H]-methyl scopolamine adsorbed on the filter was measured by a liquid scintillation counter. Non-specific binding was evaluated under existence of 5 μM of atropine. Affinity of the compound of the present invention to muscarinic M3 receptor was calculated as the dissociation constant (Ki), which can be calculated from concentration (IC50) of test compounds inhibiting 50% of binding of [^3H]-methyl scopolamine (i.e. labeled ligand) according to Cheng and Prusoff [Cheng and Prusoff, Biochem. Pharmacol., 22, 3099, 1973].

Sequence of human muscarinic M3 receptor (P20309 whole entry): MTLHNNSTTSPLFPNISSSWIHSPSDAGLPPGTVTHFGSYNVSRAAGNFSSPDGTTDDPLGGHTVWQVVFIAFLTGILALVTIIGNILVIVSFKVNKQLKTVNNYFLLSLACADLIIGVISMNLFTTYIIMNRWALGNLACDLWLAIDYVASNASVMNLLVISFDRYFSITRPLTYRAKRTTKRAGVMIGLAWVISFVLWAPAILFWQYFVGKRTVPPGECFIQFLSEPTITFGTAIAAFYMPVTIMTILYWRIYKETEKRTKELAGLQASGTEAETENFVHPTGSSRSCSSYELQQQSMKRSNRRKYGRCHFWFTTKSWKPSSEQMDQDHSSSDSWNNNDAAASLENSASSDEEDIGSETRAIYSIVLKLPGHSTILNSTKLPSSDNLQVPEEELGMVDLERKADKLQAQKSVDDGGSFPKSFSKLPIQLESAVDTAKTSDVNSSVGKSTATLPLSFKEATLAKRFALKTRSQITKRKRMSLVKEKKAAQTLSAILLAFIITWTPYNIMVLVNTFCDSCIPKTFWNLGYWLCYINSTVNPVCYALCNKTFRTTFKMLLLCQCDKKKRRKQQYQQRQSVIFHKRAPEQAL

| SMILES | Ki |
| --- | --- |
| CN1CCCC1CCOC(=O)Nc1ccc(C(F)(F)F)cc1-c1cc(F)cc(F)c1 (stereo not shown) [Example 50, 2-(1-Methylpyrrolidin-2-yl)ethyl (3′,5′-difluoro-5-(trifluoromethyl)-[1,1′-biphenyl]-2-yl)carbamate] | > 1000 nM |
| CN1CCCC1CCOC(=O)Nc1ccc(F)cc1-c1ccc(Cl)c(F)c1 (stereo not shown) [Example 54, 2-(1-methylpyrrolidin-2-yl)ethyl(4′-chloro-3′,5-difluoro-[1,1′-biphenyl]-2-yl)carbamate] | 126 nM |
| CN1CC[C@@H](COC(=O)Nc2ccccc2-c2ccc(C=O)c(F)c2)C1 [Example 74, (R)-(1-methylpyrrolidin-3-yl)methyl (3′-fluoro-4′-formyl-[1,1′-biphenyl]-2-yl)carbamate] | > 1000 nM |
| CN1CCCC1CCOC(=O)Nc1ccc(O)cc1-c1cc(Cl)cc(Cl)c1 (stereo not shown) [Example 76, 2-(1-methylpyrrolidin-2-yl)ethyl (3′,5′-dichloro-5-hydroxy-[1,1′-biphenyl]-2-yl)carbamate] | > 1000 nM |
| O=C(Nc1ccccc1-c1cc(F)cc(F)c1)OC[C@@H]1CCNC1 [Example 80, (R)-pyrrolidin-3-ylmethyl-(3′,5′-difluoro-[1,1′-biphenyl]-2-yl)carbamate] | 27.4 nM |
| O=C(Nc1ccccc1-c1cc(F)cc(F)c1)OC[C@H]1CCNC1 [Example 81, (S)-pyrrolidin-3-ylmethyl-(3′,5′-difluoro-[1,1′-biphenyl]-2-yl)carbamate] | 30.4 nM |
| O=C(Nc1ccc(F)cc1-c1ccccc1)OC[C@H]1CCNC1 [Example 82, (S)-pyrrolidin-3-ylmethyl-(5-fluoro-[1,1′-biphenyl]-2-yl)carbamate] | 18.9 nM |
| O=C(Nc1ccc(F)cc1-c1cc(F)cc(F)c1)OC[C@@H]1CCNC1 [Example 84, (R)-pyrrolidin-3-ylmethyl (3′,5,5′-trifluoro-[1,1′-biphenyl]-2-yl)carbamate] | 34.9 nM |
| Cc1ccc(NC(=O)OC[C@@H]2CCNC2)c(-c2ccccc2)c1 [Example 86, (R)-pyrrolidin-3-ylmethyl (5-methyl-[1,1′-biphenyl]-2-yl)carbamate] | 111 nM |
| Cc1ccc(NC(=O)OC[C@@H]2CCNC2)c(-c2cccc(F)c2)c1 [Example 87, (R)-pyrrolidin-3-ylmethyl (3′-fluoro-5-methyl-[1,1′-biphenyl]-2-yl)carbamate] | 94.4 nM |
| CN1CC[C@H](COC(=O)Nc2ccccc2-c2cc(F)cc(F)c2)C1 [Example 92, (S)-(1-methylpyrrolidin-3-yl)methyl (3′,5′-difluoro-[1,1′-biphenyl]-2-yl)carbamate] | 10.7 nM |
| Cc1cccc(-c2cc(F)ccc2NC(=O)OC[C@H]2CCN(C)C2)c1 [Example 94, (S)-(1-methylpyrrolidin-3-yl)methyl (5-fluoro-3′-methyl-[1,1′-biphenyl]-2-yl)carbamate] | 6.18 nM |
| Cc1ccc(NC(=O)OC[C@@H]2CCN(C)C2)c(-c2ccccc2)c1 [Example 97, (R)-(1-methylpyrrolidin-3-yl)methyl (5-methyl-[1,1′-biphenyl]-2-yl)carbamate] | 35.2 nM |
| Cc1ccc(NC(=O)OC[C@@H]2CCN(C)C2)c(-c2cccc(F)c2)c1 [Example 98, (R)-(1-methylpyrrolidin-3-yl)methyl (3′-fluoro-5-methyl-[1,1′-biphenyl]-2-yl)carbamate] | 46.2 nM |
| CCN1CC[C@@H](COC(=O)Nc2ccccc2-c2ccccc2)C1 [Example 102, (R)-(1-ethylpyrrolidin-3-yl)methyl [1,1′-biphenyl]-2-ylcarbamate] | 12.9 nM |

The next lines start with the values.

| Ki | SMILES |
| --- | --- |
| 303 nM | CN1CCCC1CCOC(=O)Nc1ccc(C(F)(F)F)cc1-c1cccc(F)c1 (stereo not shown) [Example 49, 2-(1-Methylpyrrolidin-2-yl)ethyl(3′-fluoro-5-(trifluoromethyl)-[1,1′-biphenyl]-2-yl)carbamate] |
| 101 nM | CN1CCCC1CCOC(=O)Nc1ccc(C(F)(F)F)cc1-c1cccc(Cl)c1 (stereo not shown) [Example 51, 2-(1-Methylpyrrolidin-2-yl)ethyl(3′-chloro-5-(trifluoromethyl)-[1,1′-biphenyl]-2-yl)carbamate] |
| 38.8 nM | CN1CCCC1CCOC(=O)Nc1ccc(F)cc1-c1cc(Cl)cc(Cl)c1 (stereo not shown) [Example 55, 2-(1-methylpyrrolidin-2-yl)ethyl(3′,5′-dichloro-5-fluoro-[1,1′-biphenyl]-2-yl)carbamate] |
| 34.8 nM | CN1CCCC1CCOC(=O)Nc1ccc(F)cc1-c1cc(O)cc(Cl)c1 (stereo not shown) [Example 57, 2-(1-methylpyrrolidin-2-yl)ethyl(3′-chloro-5-fluoro-5′-hydroxy-[1,1′-biphenyl]-2-yl)carbamate] |
| 119 nM | COc1ccc(NC(=O)OCCC2CCCN2C)c(-c2ccccc2)c1 (stereo not shown) [Example 60, 2-(1-methylpyrrolidin-2-yl)ethyl(5-methoxy-[1,1′-biphenyl]-2-yl)carbamate] |
| 218 nM | COc1ccc(NC(=O)OCCC2CCCN2C)c(-c2cccc(F)c2)c1 (stereo not shown) [Example 61, 2-(1-methylpyrrolidin-2-yl)ethyl(3′-fluoro-5-methoxy-[1,1′-biphenyl]-2-yl)carbamate] |
| > 1000 nM | COc1ccc(NC(=O)OCCC2CCCN2C)c(-c2cc(F)cc(F)c2)c1 (stereo not shown) [Example 62, 2-(1-Methylpyrrolidin-2-yl)ethyl(3′,5′-difluoro-5-methoxy-[1,1′-biphenyl]-2-yl)carbamate] |
| 58.1 nM | COc1ccc(NC(=O)OCCC2CCCN2C)c(-c2cccc(Cl)c2)c1 (stereo not shown) [Example 63, 2-(1-methylpyrrolidin-2-yl)ethyl(3′-chloro-5-methoxy-[1,1′-biphenyl]-2-yl)carbamate] |
| > 1000 nM | COc1ccc(NC(=O)OCCC2CCCN2C)c(-c2cc(Cl)cc(Cl)c2)c1 (stereo not shown) [Example 64, 2-(1-Methylpyrrolidin-2-yl)ethyl(3′,5′-dichloro-5-methoxy-[1,1′-biphenyl]-2-yl)carbamate] |
| 71.3 nM | COc1ccc(NC(=O)OCCC2CCCN2C)c(-c2ccc(F)c(Cl)c2)c1 (stereo not shown) [Example 65, 2-(1-Methylpyrrolidin-2-yl)ethyl (3′-chloro-4′-fluoro-5-methoxy-[1,1′-biphenyl]-2-yl)carbamate] |
| 109 nM | CN1CCCC1CCOC(=O)Nc1ccc(Cl)cc1-c1cc(F)cc(F)c1 (stereo not shown) [Example 69, 2-(1-Methylpyrrolidin-2-yl)ethyl(5-chloro-3′,5′-difluoro-[1,1′-biphenyl]-2-yl)carbamate] |
| 134 nM | CN1CCCC1CCOC(=O)Nc1ccc(Cl)cc1-c1cc(Cl)cc(Cl)c1 (stereo not shown) [Example 71, 2-(1-Methylpyrrolidin-2-yl)ethyl (3′,5,5′-trichloro-[1,1′-biphenyl]-2-yl)carbamate] |
| 58.8 nM | CN1CCCC1CCOC(=O)Nc1ccc(Cl)cc1-c1cc(F)cc(Cl)c1 (stereo not shown) [Example 72, 2-(1-Methylpyrrolidin-2-yl)ethyl (3′,5-dichloro-5′-fluoro-[1,1′-biphenyl]-2-yl)carbamate] |
| 471 nM | CN1CCCC1CCOC(=O)Nc1ccc(O)cc1-c1cc(F)cc(F)c1 (stereo not shown) [Example 75, 2-(1-methylpyrrolidin-2-yl)ethyl (3′,5′-difluoro-5-hydroxy-[1,1′-biphenyl]-2-yl)carbamate] |
| 18.3 nM | Cc1cccc(-c2cc(F)ccc2NC(=O)OC[C@H]2CCNC2)c1 [Example 83, (S)-pyrrolidin-3-ylmethyl (5-fluoro-3′-methyl-[1,1′-biphenyl]-2-yl)carbamate] |
| 17.6 nM | CN1CC[C@H](COC(=O)Nc2ccc(F)cc2-c2cc(F)cc(F)c2)C1 [Example 96, (S)-(1-methylpyrrolidin-3-yl)methyl (3′,5,5′-trifluoro-[1,1′-biphenyl]-2-yl)carbamate] |
